Assay results taken from PMC5065625, “Structure-mechanism-based engineering of chemical regulators targeting distinct pathological factors in Alzheimer's disease” (Nature Communications, 2016).

How the values were obtained:
[1] = Parallel artificial membrane permeability assay adapted for BBB (PAMPA-BBB); assay type: in vitro ADME; conditions: 25 μM, pH 7.4, 4 h
Description: PAMPA-BBB experiments were conducted using the PAMPA Explorer kit (pION Inc., Billerica, MA, USA) using previously reported protocols. Compounds (25 μM, 200 μl) in pH 7.4 Prisma HT buffer (pION) were added to the wells of a donor plate (number of replicates=12). The polyvinylidene fluoride (PVDF, […]) filter membrane on the acceptor plate was coated with BBB-1 lipid formulation (5 μl, pION). The acceptor plate was placed on top of the donor plate. Brain sink buffer (BSB, 200 μl, pION) was added to each well of the acceptor plate and was incubated for 4 h at ambient temperature without stirring. UV–vis spectra of the solutions in the reference, acceptor, and donor plates were measured using a microplate reader. The PAMPA Explorer software v. 3.5 (pION) was used to calculate the −logPe values for compounds. CNS±designations were assigned by comparison with compounds that were identified in previous reports.

Zn(II)–Aβ40/Aβ42 = assay: Aβ aggregation inhibition/disaggregation experiments (gel/western blot, TEM), Zn(II); assay type: biochemical; conditions: Aβ 25 μM, compound 50 μM, 37 °C, 24 h; gel/western blot and TEM
Description: The ability of 1–4 to control the aggregation of both metal-free Aβ and metal-Aβ in inhibition (Fig. 2) and disaggregation experiments (Supplementary Fig. 1) was evaluated using the two major Aβ isoforms (Aβ40/Aβ42)[1][2][3][6][16] found in the AD-affected brain. Molecular weight (MW) distributions and morphologies of the resulting Aβ species were determined by gel electrophoresis followed by western blotting (gel/western blot) and transmission electron microscopy (TEM). Generally, under the experimental conditions employed herein, compound-free Aβ samples with and without metal ions assemble into a distribution of large aggregates that are too big to penetrate into the gel matrix, which yields very little smearing in the gel/western blots, but they can be visualized by TEM. The administration of compounds, able to interact with Aβ, inhibit the formation of high MW aggregates, and/or disassemble preformed aggregates, typically generates smaller-sized Aβ species that can enter into the gel and produce a substantial amount of streaking compared with the samples containing Aβ only.
Before experiments, Aβ40 or Aβ42 was dissolved in ammonium hydroxide (NH4OH; 1% v/v, aq). The resulting solution was aliquoted, lyophilized overnight and stored at −80 °C. A stock solution of Aβ was then prepared by dissolving lyophilized peptide in 1% NH4OH (10 μl) and diluting with ddH2O. The concentration of the solution was determined by measuring the absorbance of the solution at 280 nm (ɛ=1,450 M^–1 cm^–1 for Aβ40; ɛ=1,490 M^–1 cm^–1 for Aβ42). The peptide stock solution was diluted to a final concentration of 25 μM in Chelex-treated buffered solution containing HEPES ([…]; pH 6.6 for Cu(II) samples; pH 7.4 for metal-free and Zn(II) samples) and NaCl (150 μM). […]
The Aβ samples from in vivo or in vitro experiments were analysed by gel electrophoresis followed by western blotting using an anti-Aβ antibody (6E10)[24][25][27][28][29]. […]

| Compound | −logPe [1] | Modulation of Zn(II)-induced Aβ aggregation (Zn(II)–Aβ40/Aβ42) |
| --- | --- | --- |
| CN(C)c1ccc(NCc2ccc3ccccc3n2)cc1 [compound 3, N^1,N^1-dimethyl-N^4-(quinolin-2-ylmethyl)benzene-1,4-diamine] | 4.2(2) | modulates Aβ aggregation involved by both Cu(II) and Zn(II) |
| Nc1ccc(NCc2ccccn2)cc1 [compound 1, N^1-(pyridin-2-ylmethyl)benzene-1,4-diamine] | 5.0(1) | did not show any noticeable activity |
| CN(C)c1ccc(NCc2ccc[nH]2)cc1 [compound 4, N^1-((1H-pyrrol-2-yl)methyl)-N^4,N^4-dimethylbenzene-1,4-diamine] | 4.9(0) | redirect both Cu(II)- and Zn(II)-induced Aβ aggregation |
| COc1cc(NCc2ccccn2)cc(OC)c1 [compound 2, 3,5-dimethoxy-N-(pyridin-2-ylmethyl)aniline] | 4.2(8) | – |
